# Reference: patent US20030232986A1, “Inhibitors of caspases” (Vertex Pharmaceuticals Incorporated, priority 1998, published 2003)
# pIC50, pKi: −log10 of the molar value. Like-named read-outs stand apart in the source and are kept apart here. Where a SMILES comes first, the peptide text is derived from it. The star is where a group is joined. Bz = O=C(c1ccccc1)*
# How the values were obtained:
# Caspase-1 = molecular target: T1, Caspase-1 (Homo sapiens, UniProt P29466); experiment: Caspase-1 enzyme inhibition (Ki); format: biochemical
# T1 sequence (P29466 120-297 limits assumed): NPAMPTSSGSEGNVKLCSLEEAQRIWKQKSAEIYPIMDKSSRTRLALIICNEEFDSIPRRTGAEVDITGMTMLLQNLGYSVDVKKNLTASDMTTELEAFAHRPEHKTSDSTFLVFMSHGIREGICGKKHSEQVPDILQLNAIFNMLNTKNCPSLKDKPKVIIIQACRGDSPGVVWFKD
# T1 sequence (P29466 317-404 limits assumed): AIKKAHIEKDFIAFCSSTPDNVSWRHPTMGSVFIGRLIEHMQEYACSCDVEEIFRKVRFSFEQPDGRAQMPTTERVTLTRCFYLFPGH
# Method in brief: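 Ki obtained by fitting rate versus inhibitor concentration to the Morrison tight-binding equation for competitive inhibitors, with pNA release read at 405 nm at 37 °C. Substrate Suc-YVAD-pNA (80 μM final) added after 15 min enzyme–inhibitor preincubation in Tris pH 7.5 buffer with DTT and CHAPS.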
# [1] = test system: Human whole blood, IL-1β production; experiment: Whole blood assay for IL-1β production; format: cell-based; details: LPS-stimulated whole blood, IL-1β by ELISA
# Method in brief: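 LPS-stimulated (5.0 ng/ml final) human whole blood incubated with test compound in saline (or plasma/PBS-5% DMSO for hydrophobic compounds) at 30° C for 16-18 hr. Plasma IL-1β then measured by ELISA at 1:200 dilution, against no-LPS, no-inhibitor and vehicle controls.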
# [2] = Single pass perfusion in rat: GI wall and liver metabolism, biliary excretion; format: in vitro ADME; details: for f (g) Xf (h): GI wall metabolism f(g) x liver metabolism f(h)
# Protocol: Single pass perfusion studies in rat were performed to assess gastrointestinal (GI) wall metabolism (f(g)), liver metabolism (f(h)), and biliary excretion. The method used has been described in Pang, C. S., J. Pharmacol. Exp. Therapeutics, 333, pp. 788-798 (1984).
# [3] = substrate Suc-YVAD-pNA 80 μM, 37° C., pH 7.5
pKi (Caspase-1; [3]),pIC50 [1],Biliary Excretion [2],f (g) Xf (h) [2],pKi (Caspase-1),Compound
> 8.00,> 5.60,C (Category “C” indicates >10%),A (category “A” indicates <0.25),–,CC(C)[C@H](NC(=O)c1nccc2ccccc12)C(=O)N1CCC[C@H]1C(=O)N[C@H](C=O)CC(=O)O [Example 5c]
> 8.00,5.12 to 5.60,A (category “A” indicates <5%),B (Category “B” indicates 0.25-0.49),> 8.00,CC(C)[C@H](NC(=O)c1cccc2c1-c1ccccc1C2=O)C(=O)N1CCC[C@H]1C(=O)N[C@H](C=O)CC(=O)O [Example 5k]
> 8.00,> 5.60,C (Category “C” indicates >10%),B (Category “B” indicates 0.25-0.49),> 8.00,CC(C)[C@H](NC(=O)c1cc(Cl)c(O)c(Cl)c1)C(=O)N1CCC[C@H]1C(=O)N[C@H](C=O)CC(=O)O [Example 5m]
> 8.00,> 5.60,–,–,–,Cc1cc(C(=O)N[C@@H](C)C(=O)N2CCC[C@H]2C(=O)N[C@H](C=O)CC(=O)O)cc(C)c1O [Example 7c]
> 8.00,5.12 to 5.60,A (category “A” indicates <5%),D (Category “D” indicates >0.75),–,C[C@H](NC(=O)c1nccc2ccccc12)C(=O)N1CCC[C@H]1C(=O)N[C@H](C=O)CC(=O)O [Example 7d]
6.00 to 8.00,5.12 to 5.60,A (category “A” indicates <5%),C (Category “C” indicates 0.5-0.75),–,COc1ccc(C(=O)N[C@@H](C)C(=O)N2CCC[C@H]2C(=O)N[C@H](C=O)CC(=O)O)cc1 [Example 7f]
6.00 to 8.00,5.12 to 5.60,A (category “A” indicates <5%),D (Category “D” indicates >0.75),–,COCC(=O)N1CCN(C(=O)[C@H](C)NC(=O)c2ccc(N)c(Cl)c2)[C@H](C(=O)N[C@H](C=O)CC(=O)O)C1 [Example 18f]
> 8.00,> 5.60,C (Category “C” indicates >10%),B (Category “B” indicates 0.25-0.49),–,O=C[C@H](CC(=O)O)NC(=O)[C@@H]1CCCN1C(=O)[C@H](Cc1cccnc1)NC(=O)c1nccc2ccccc12 [Example 20f]
> 8.00,> 5.60,A (category “A” indicates <5%),B (Category “B” indicates 0.25-0.49),–,CSC[C@H](NC(=O)c1nccc2ccccc12)C(=O)N1CCC[C@H]1C(=O)N[C@H](C=O)CC(=O)O [Example 20g]
> 8.00,> 5.60,–,–,–,CS(=O)(=O)CC[C@H](NC(=O)c1nccc2ccccc12)C(=O)N1CCC[C@H]1C(=O)N[C@H](C=O)CC(=O)O [Example 20h]
> 8.00,> 5.60,–,–,–,CC[C@H](NC(=O)c1cc(Cl)c(O)c(Cl)c1)C(=O)N1CCC[C@H]1C(=O)N[C@H](C=O)CC(=O)O [Example 20m]
> 8.00,5.12 to 5.60,A (category “A” indicates <5%),C (Category “C” indicates 0.5-0.75),–,CC(C)[C@H](NC(=O)c1ccccc1)C(=O)N1CC(c2ccccc2)[C@H]1C(=O)N[C@H](C=O)CC(=O)O (some centres unmarked) [Example 24a]
> 8.00,> 5.60,–,–,–,CC(C)[C@H](NC(=O)c1ccccc1)C(=O)N[C@@H](C)C(=O)N[C@H](C=O)CC(=O)O [Example 29a] (Bz-Val-Ala-Asp-aldehyde)
> 8.00,> 5.60,–,–,–,"CC(=O)Nc1ccc(C(=O)N[C@@H](C)C(=O)N2CCC[C@H]2C(=O)N[C@H](C=O)CC(=O)O)cc1Cl [Example 122f, 3-({1-[2-(4-Acetylamino-3-chloro-benzoylamino)-propionyl]-pyrrolidine-2-carbonyl}-amino)-4-oxo-butyric acid]"
> 8.00,> 5.60,–,–,–,"C[C@H](NC(=O)c1cc(Cl)c(O)c(Cl)c1)C(=O)N1CCC[C@H]1C(=O)N[C@H](C=O)CC(=O)O [Example 122k, 3-({1-[2-(3,5-Dichloro-4-hydroxy-benzoylamino)-propionyl]-pyrrolidine-2-carbonyl}-amino)-4-oxo-butyric acid]"
